Laboratory results from patent US9006440B2, “Furopyridine derivatives” (Merck Patent GmbH, priority 2010, dated 2015).

Columns and labels:
Type in all cases: biochemical
[1] = molecular target: T1, KDR (Homo sapiens, UniProt P35968); test: KDR enzymatic assay (Caliper LifeSciences technology)
T1 construct: purchased BPS Bioscience, CA, USA
Protocol: (§1) The assays described here are performed on the Caliper Life Sciences LC3000 system This technology provides data on enzyme activity via measurement of the relative amounts of phosphorylated or unphosphorylated fluorescently labelled substrate peptide at the end of an enzymatic reaction. These different states of peptide are resolved by applying a potential difference across the sample. The presence of the charged phosphate group on the product (as opposed to the substrate) causes a different peptide mobility between the two peptides. This is visualized by excitation of the fluorescent label on the substrate and product peptides and represented as peaks within the analysis software.
(§2) In order to measure inhibitor activity of kinase inhibitors on this technology, a TTP Mosquito liquid handling instrument is used to place 0.25 ul of the appropriate concentration of inhibitor in 100% DMSO (for a dose response curve calculation) into each well of a 384-well plate. To this reaction components are added to a final volume of 25 ul. The table below indicates the sequences and concentrations for the assays described in this report. Standard components are 1 mM DTT (Sigma, D0632), 1 mM MgCl2 (Sigma, M1028), 100 mM HEPES pH 7.5 (Calbiochem, 391338), 0.015% Brij-35 (Sigma, B4184).
(§3) The reaction is incubated for 90 min at 25 C, and then stopped by the addition of 70 ul of Stop buffer (100 mM HEPES pH 7.5, 0.015% Brij-35, 10 mM EDTA (Sigma, E7889)).
(§4) The plate is read on a Caliper LC 3000 in an Off-Chip mobility shift assay format, on a 12-sipper chip. Unphosphorylated substrate and phosphorylated product peptide resolve as separate peaks allowing direct measurement of percentage of conversion of substrate to product. The percent conversion can be plotted against concentration of inhibitor to produce a sigmoidal dose response curve, from which an IC50 can be calculated using GeneData Condoseo or a similar product.

[2] = molecular target: T2, SRC (Homo sapiens, UniProt P12931); test: Src enzymatic assay (Caliper LifeSciences technology)
T2 construct: purchased Carna Bioscience, Kobe, Japan
Protocol: as §1, §2, §3, §4

[3] = molecular target: T3, Syk (Homo sapiens, UniProt P43405); test: Syk enzyme assay (SYK flash plate assay / Caliper mobility shift)
T3 construct: purchased BPS Bioscience, CA, USA
Protocol: The kinase assay is performed either as 384-well Flashplate assay (for e.g. Topcount measurement) or as 384-well Image-Flashplate assay (for LEADseeker measurement).
2.5 nM SYK, 400 nM Biotin-Aha-Aha-KEDPDYEWPSAKK
and 10 μM ATP (spiked with 0.3 μCi 33P-ATP/well) are incubated in a total volume of 50 μl (60 mM Hepes, 10 mM MgCl2, 1.2 mM Dithiothreitol, 0.02% Brij35, 0.1% BSA, pH 7.5) with or without test compound for 1 hours at 30° C. The reaction is stopped with 25 μl 200 mM EDTA. After 30 Min at 30° C. the liquid is removed and each well washed thrice with 100 μl 0.9% sodium chloride solution. Non-specific reaction is determined in presence of 0.1 μM Staurosporine. Radioactivity is measured with Topcount (when using Flashplates) or with LEADseeker (when using Image-Flashplates) respectively. Results (e.g. IC50-values) are calculated with program tools provided by the IT-department (e.g. Symyx Assay Explorer, Genedata Screener). Enzymatic Assays Using the Caliper LifeSciences Technology
as §1, §2, §3, §4

T1 sequence (P35968 20-1356): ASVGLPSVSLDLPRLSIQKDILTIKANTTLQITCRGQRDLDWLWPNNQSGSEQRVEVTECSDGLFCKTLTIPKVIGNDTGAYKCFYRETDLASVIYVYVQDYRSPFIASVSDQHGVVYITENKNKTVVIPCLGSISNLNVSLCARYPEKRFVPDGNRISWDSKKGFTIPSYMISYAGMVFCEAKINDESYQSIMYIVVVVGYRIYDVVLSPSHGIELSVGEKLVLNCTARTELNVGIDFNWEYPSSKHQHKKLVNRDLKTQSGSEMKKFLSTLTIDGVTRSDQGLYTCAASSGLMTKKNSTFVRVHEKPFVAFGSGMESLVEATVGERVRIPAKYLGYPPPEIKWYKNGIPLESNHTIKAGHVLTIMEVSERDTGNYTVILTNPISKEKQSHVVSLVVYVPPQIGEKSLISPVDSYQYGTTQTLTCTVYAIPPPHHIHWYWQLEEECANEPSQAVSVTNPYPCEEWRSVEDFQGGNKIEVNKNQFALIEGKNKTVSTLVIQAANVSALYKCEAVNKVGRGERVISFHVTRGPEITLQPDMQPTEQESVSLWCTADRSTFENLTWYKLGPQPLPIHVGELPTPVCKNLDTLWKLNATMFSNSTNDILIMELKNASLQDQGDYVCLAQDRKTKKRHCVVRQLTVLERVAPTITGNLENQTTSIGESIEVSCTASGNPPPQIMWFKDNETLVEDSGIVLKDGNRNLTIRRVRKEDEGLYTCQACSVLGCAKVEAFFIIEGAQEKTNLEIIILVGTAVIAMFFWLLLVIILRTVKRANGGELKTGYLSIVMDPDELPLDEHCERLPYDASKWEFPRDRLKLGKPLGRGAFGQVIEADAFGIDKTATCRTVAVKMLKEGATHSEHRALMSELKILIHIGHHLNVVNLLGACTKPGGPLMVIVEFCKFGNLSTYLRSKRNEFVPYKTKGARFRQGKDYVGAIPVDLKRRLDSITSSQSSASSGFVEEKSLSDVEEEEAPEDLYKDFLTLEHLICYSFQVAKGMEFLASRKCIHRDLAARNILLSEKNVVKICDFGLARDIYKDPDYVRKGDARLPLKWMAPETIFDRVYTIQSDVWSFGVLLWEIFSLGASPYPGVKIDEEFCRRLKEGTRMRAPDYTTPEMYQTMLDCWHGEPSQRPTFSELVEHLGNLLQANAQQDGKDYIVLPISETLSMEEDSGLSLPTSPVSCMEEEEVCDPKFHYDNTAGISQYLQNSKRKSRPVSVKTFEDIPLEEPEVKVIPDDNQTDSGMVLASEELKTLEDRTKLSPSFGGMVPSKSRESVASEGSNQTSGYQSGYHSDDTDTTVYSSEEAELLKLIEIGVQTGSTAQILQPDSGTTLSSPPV
T2 sequence (P12931 whole entry): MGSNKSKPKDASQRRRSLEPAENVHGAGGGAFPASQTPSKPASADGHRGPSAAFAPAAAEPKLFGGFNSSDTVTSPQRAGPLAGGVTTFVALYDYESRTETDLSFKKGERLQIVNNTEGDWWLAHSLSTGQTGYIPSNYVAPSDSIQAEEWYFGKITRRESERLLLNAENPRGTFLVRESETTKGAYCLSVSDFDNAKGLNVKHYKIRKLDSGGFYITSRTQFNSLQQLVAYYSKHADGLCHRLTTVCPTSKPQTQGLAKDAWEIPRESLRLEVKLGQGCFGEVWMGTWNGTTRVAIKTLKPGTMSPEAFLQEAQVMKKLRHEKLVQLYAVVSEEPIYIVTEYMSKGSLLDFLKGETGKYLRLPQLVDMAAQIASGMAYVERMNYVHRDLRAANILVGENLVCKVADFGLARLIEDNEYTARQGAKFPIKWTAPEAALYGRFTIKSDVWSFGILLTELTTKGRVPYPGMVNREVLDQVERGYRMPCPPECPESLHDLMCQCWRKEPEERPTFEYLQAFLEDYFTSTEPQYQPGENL

| IC50 [1] [nM] | IC50 [2] [nM] | IC50 [3] [nM] | SMILES |
| --- | --- | --- | --- |
| 300 to 3000 | 300 to 3000 | < 300 | COc1cc(-c2cc3nccc(-c4c[nH]nc4C)c3o2)cc(OC)c1OC [Compound C127] |
|  | < 300 | < 300 | COc1cc(C(=O)N[C@@H]2CCCC[C@@H]2N)cc(-c2ccnc3cc(-c4cc(OC)c(OC)c(OC)c4)oc23)c1 [Compound C170] |
| 300 to 3000 | 300 to 3000 | < 300 | COc1cc(-c2cc3nccc(-c4cnc5c(c4)CCCO5)c3o2)cc(OC)c1OC [Compound C113] |
|  | 3000 to 50000 | < 300 | COc1cc(-c2cc3nccc(-c4c(F)cccc4OC)c3o2)cc(OC)c1OC [Compound C119] |
|  | 3000 to 50000 | < 300 | COc1cc(-c2cc3nccc(-c4cccc(C(=O)NCC5CCCN5)c4)c3o2)cc(OC)c1OC (centres unmarked) [Compound C11] |
|  | 300 to 3000 | < 300 | COc1cc(-c2cc3nccc(-c4cc(O)cc(C(=O)NCCN)c4)c3o2)cc(OC)c1OC [Compound C149] |
| 300 to 3000 |  | 300 to 3000 | Cn1cc(-c2ccnc3cc(-c4ccc(CO)cc4)oc23)cn1 [Compound C59] |
| 300 to 3000 |  | < 300 | COc1cc(-c2cc3nccc(-c4cccc(S(C)(=O)=O)c4)c3o2)cc(OC)c1OC [Compound C110] |
|  | 300 to 3000 | < 300 | COc1ccc(OC)c(-c2cc3nccc(-c4cnn(C)c4)c3o2)c1 [Compound C140] |

The next lines start with the molecule.

| SMILES | IC50 [1] [nM] | IC50 [2] [nM] | IC50 [3] [nM] |
| --- | --- | --- | --- |
| COc1c(C)cc(-c2cc3nccc(Nc4ccc5[nH]ccc5c4C)c3o2)cc1C [Compound B49, [2-(4-Methoxy-3,5-dimethyl-phenyl)-furo[3,2-b]pyridin-7-yl]-(4-methyl-1H-indol-5-yl)-amine] | 300 to 3000 | < 300 | 300 to 3000 |
| Cc1c(Nc2ccnc3cc(-c4ccc5c(c4)OCCO5)oc23)ccc2[nH]ccc12 [Compound B60, [2-(2,3-Dihydro-benzo[1,4]dioxin-6-yl)-furo[3,2-b]pyridin-7-yl]-(4-methyl-1H-indol-5-yl)-amine] | 300 to 3000 | < 300 | 300 to 3000 |
| COc1cc(-c2cc3nccc(-c4cc(OC)c(OC)c(OC)c4)c3o2)cc(OC)c1OC [Compound B24, 2,7-Bis-(3,4,5-trimethoxy-phenyl)-furo[3,2-b]pyridine] | 3000 to 50000 | 3000 to 50000 | < 300 |
| Cc1noc(C)c1-c1cc2nccc(Nc3ccc4[nH]ccc4c3C)c2o1 [Compound B63, [2-(3,5-Dimethyl-isoxazol-4-yl)-furo[3,2-b]pyridin-7-yl]-(4-methyl-1H-indol-5-yl)-amine] | < 300 | < 300 | 300 to 3000 |
| COc1ccc(-c2cc3nccc(Nc4ccc5[nH]ccc5c4C)c3o2)c(OC)c1OC [Compound B56] | < 300 | < 300 | 300 to 3000 |
| COc1cccc(-c2cc3nccc(Nc4ccc5[nH]ccc5c4C)c3o2)c1 [Compound B57, [2-(3-Methoxy-phenyl)-furo[3,2-b]pyridin-7-yl]-(4-methyl-1H-indol-5-yl)-amine] | < 300 | < 300 | 300 to 3000 |
| COc1cc(-c2cc3nccc(-c4cccc(C(=O)NC5CCNC5)c4)c3o2)cc(OC)c1OC (centres unmarked) [Compound A66, N-pyrrolidin-3-yl-3-[2-(3,4,5-trimethoxyphenyl)furo[3,2-b]pyridin-7-yl]benzamide] |  | 300 to 3000 | < 300 |
| COc1cc(-c2cc3nccc(-c4cccc(NC(C)=O)c4)c3o2)cc(OC)c1OC [Compound B72, N-(3-(2-(3,4,5-Trimethoxyphenyl)furo[3,2-b]pyridin-7-yl)phenyl)acetamide] |  | 3000 to 50000 | 300 to 3000 |
| COc1cc(-c2cc3nccc(-c4cccc(C(=O)N5CCC(N)C5)c4)c3o2)cc(OC)c1OC (centres unmarked) [Compound A67, (3-aminopyrrolidin-1-yl)-[3-[2-(3,4,5-trimethoxyphenyl)furo[3,2-b]pyridin-7-yl]phenyl]methanone] |  | 300 to 3000 | 300 to 3000 |
